Laboratory results as given in PMC10313671, “Accelerating the prediction and discovery of peptide hydrogels with human-in-the-loop” (Nature Communications, 2023).
Where a SMILES comes first, the peptide text is derived from it.

How the values were obtained:
[1] = Peptide hydrogel formation, vial-inverting method; assay type: physicochemical; set-up: key to EXP / GELATION: 0: no hydrogel; 1: hydrogel; details: for State: pH 6.5-8.5 (1 N NaOH), ultrasonication, standing 48 h; for Concentration: concentration at which the state was recorded: lowest of 30, 60, 90, 120 mM that gave a gel, 120 mM for non-gelating peptides; for GELATION: 1 = hydrogel, 0 = no hydrogel
Summary of the method: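 Gelation judged by vial inversion, a non-flowing self-supporting sample counting as hydrogel, after 48 h standing. Peptide in water at 30 mM first, escalating to 60, 90 and 120 mM if no gel; pH set to 6.5–8.5 by stepwise 1 N NaOH, each step sonicated briefly.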

[2] = Optical images of aqueous peptide solutions at four concentrations; assay type: physicochemical; details: pH = 7.5
Description: [7. What are the pH values of the hydrogels formed? […]
the captions of proper figures.]
We thank the reviewer for the comment. […]
the information of pH values of tetrapeptide hydrogels/solutions in the captions of Fig. 3a and d. […]
Insets: […]
optical images of corresponding solution/suspension (pH=7.5). […]
[8. Is it surprising that both QQQQ and EEEE form suspension at 120 mM? Any explanation from either ML perspective or thermodynamic prospective?]
We thank the reviewer for the comment. From the ML or simulation perspective, both QQQQ and […]
hydrophilicity and lack of sufficient directional hydrogen bonds captured in simulation and prediction. However, the formation of suspension in real experiments indicate the formation of aggregates, and we attribute this to the thermodynamic factor of concentration.
Actually, we also found this phenomenon on RRRR (also contains four charged amino acids), and […]
We compared the optical images of QQQQ and EEEE at four concentrations (30, 60, 90, and 120 […]
transparency decreased (60, 90, and 120 mM) due to the formation of aggregates. As for EEEE, at […]
suspension. We tend to think that as the concentration of charged tetrapeptides increases, the hydrogen bond between peptide molecules and water is strengthened, resulting in the formation of […]
aggregates at high concentrations. […]
description in Lines 214-216 of this main text.
Fig. R1 The optical images of QQQQ and EEEE aqueous solutions at four concentrations (30, 60, […]
with different sizes in an aqueous solution, qualitatively consistent with the morphologies obtained in MD simulations except for RRRR (Fig. 3d, right column), showing different levels of aggregation. Taking the TEM result of RRRR together, we attributed this to the thermodynamic factor of concentration. Finally, we presented a summary of the assembled morphologies of all […]
tetrapeptides tended to form fibers, sheets, or hybrid morphology (70%) in an aqueous solution. […]
[…]
(1 picture or pasted object on this page, not shown here)

[3] = Transmission electron microscope (negative staining) of peptide assemblies; details: for Morphology: TEM, negative staining with uranyl acetate, 120 kV; for morphology by TEM (in words): aqueous solution or hydrogel, negative staining
Description: We used the negative staining technique to observe the morphologies formed by peptides. A micropipette was used to load 10 μL of sample solution to a carbon-coated copper grid, and we used a piece of filter paper to remove the excess solution. After rinsing the grid with the deionized water, we used uranyl acetate to stain the sample for 1 minute and then rinsed the grid with deionized water again.

[4] = tested on: C57BL/6 mice; assay type: in vivo, C57BL/6 J mice; details: serum day 21
[5] = 120 mM peptide (highest tested) in ultrapure water, vial-inverting method, precipitate, sol, suspension = no gel
[6] = peptide concentration 120 mM, vial-inverting method

Compound	State [1, 5]	Concentration [1]	GELATION [1, 6]	appearance of aqueous solution (optical image) ([2]; 30 mM)	appearance of aqueous solution (optical image) ([2]; 60 mM)	appearance of aqueous solution (optical image) ([2]; 90 mM)	appearance of aqueous solution (optical image) ([2]; 120 mM)	Morphology ([3]; line of the table gives 120 mM)	State ([1]; 60 mM peptide in ultrapure water, vial-inverting method, no gel at 30 mM)	GELATION ([1]; peptide concentration 60 mM, vial-inverting method)	hydrogel formation (in words) ([1]; vial-inverting method, representative hydrogels pH between 7.0 to 7.5)	increase of RBD-specific IgG2b response compared with the commercial aluminum adjuvant group ([4]; C57BL/6 mice)	production of RBD-specific IgG1 (in words) ([4]; C57BL/6 mice, similar to the aluminum group)	RBD-specific IgG2c titers (in words) ([4]; C57BL/6 mice, surpassing aluminum group or control group)	enhancement of the generation of IgG compared with the RBD group ([4]; […], C57BL/6 mice)	endpoint titre of RBD-specific IgG in serum ([4]; mean of n = 6 mice, s.c. immunization day 0, 7, 14 with 15 μg RBD alone, with 12.5 μL aluminum adjuvant or 60 mM YAWF hydrogel, […])	Morphology ([3]; line of the table gives 60 mM)	morphology by TEM (in words) [3]
N[C@@H](CCC(=O)O)C(=O)N[C@@H](CCC(=O)O)C(=O)N[C@@H](CCC(=O)O)C(=O)N[C@@H](CCC(=O)O)C(=O)O [EEEE] (H-EEEE-OH)	suspension	120000 µM	0	uniform and clear solutions	uniform and clear solutions	uniform and clear solutions	opaque suspension	sheet	–	–	–	–	–	–	–	–	–	–
NC(=O)CC[C@H](NC(=O)[C@H](CCC(N)=O)NC(=O)[C@H](CCC(N)=O)NC(=O)[C@@H](N)CCC(N)=O)C(=O)O [QQQQ] (H-QQQQ-OH)	suspension	120000 µM	0	clear solution	solution transparency decreased	solution transparency decreased	solution transparency decreased	sheet	–	–	–	–	–	–	–	–	–	–
C[C@H](NC(=O)[C@@H](N)Cc1ccc(O)cc1)C(=O)N[C@@H](Cc1c[nH]c2ccccc12)C(=O)N[C@@H](Cc1ccccc1)C(=O)O [YAWF] (H-YAWF-OH)	–	60000 µM	–	–	–	–	–	–	gel	1	can form hydrogels	around 9.7 fold	significantly enhanced	high IgG2c titers	41.6 fold	58615.2	fibre	nanofibrous network
C[C@@H](O)[C@H](N)C(=O)N[C@@H](CCCNC(=N)N)C(=O)N[C@@H](Cc1ccccc1)C(=O)N[C@@H](CO)C(=O)O [TRFS] (H-TRFS-OH)	suspension	120000 µM	–	–	–	–	–	particle	–	–	–	–	–	–	–	–	–	aggregates with different sizes
